Results on eight molecules are retold here after ChEMBL document CHEMBL1153858, “Application of phosphonyl carbanions to highly regioselective synthesis of some diazaphospholes and pyrazolinyl phosphonates” (2009).

What all share (assay type): functional
The subject of experiment [1] is Agrobacterium tumefaciens. Nature of the experiment: Antimicrobial activity against Bacillus tumefaciens assessed as activity index.
Experiment [2] concerns Klebsiella pneumoniae. As to the kind of experiment: Antimicrobial activity against Klebsiella pneumoniae assessed as activity index.
Experiment [3] deals with Aspergillus niger. Nature of the experiment: Antimicrobial activity against Aspergillus niger assessed as activity index.
Experiment [4] has as its system Penicillium chrysogenum. Nature of the experiment: Antimicrobial activity against Penicillium chrysogenum.
The test system of experiment [5] is Klebsiella pneumoniae. Nature of the experiment: Antimicrobial activity against Klebsiella pneumoniae.
Experiment [6] relates to Agrobacterium tumefaciens. Nature of the experiment: Antimicrobial activity against Bacillus tumefaciens.
For experiment [7], the system named is Aspergillus niger. Nature of the experiment: Antimicrobial activity against Aspergillus niger.
In experiment [8] the test system is Aspergillus flavus. As to the kind of experiment: Antimicrobial activity against Aspergillus flavus assessed as activity index.
In experiment [9] the test system is Penicillium chrysogenum. Nature of the experiment: Antimicrobial activity against Penicillium chrysogenum assessed as activity index.
Experiment [10] concerns Staphylococcus aureus. As to the kind of experiment: Antimicrobial activity against Staphylococcus aureus.
The subject of experiment [11] is Staphylococcus aureus. Nature of the experiment: Antimicrobial activity against Staphylococcus aureus assessed as activity index.
Experiment [12] deals with Aspergillus flavus. Nature of the experiment: Antimicrobial activity against Aspergillus flavus.

As to `CCOP1(=O)C(C(=O)OC)=NN(CC)C12C(=O)c1ccccc1C2=O` (stereo unspecified), the Activity is reported as 0.9 in [1]; 1.04 in the experiment with Klebsiella pneumoniae [2]; 1.18 in the experiment with Aspergillus niger [3]; 1.12 with Aspergillus flavus [8]; 1.31 in the experiment with Penicillium chrysogenum [9]; 0.85 with Staphylococcus aureus [11]. Further, the “Diameter of inhibition zone” value was 7.9 mm in the experiment with Penicillium chrysogenum [4]; 10.3 mm with Klebsiella pneumoniae [5]; 12.2 mm in [6]; 8.4 mm in the experiment on Aspergillus niger [7]; 9 mm with Staphylococcus aureus [10]; 9 mm with Aspergillus flavus [12].

As to `CCOP1(=O)C(C#N)=NN(CC)C12C(=O)c1ccccc1C2=O` (stereo unspecified), the Activity in [1] turned out to be 0.89; with Klebsiella pneumoniae [2], 1.16; in the experiment with Aspergillus niger [3], 1.14; in the experiment on Aspergillus flavus [8] it was 1.15; in the experiment with Penicillium chrysogenum [9] it was 1; in the experiment on Staphylococcus aureus [11] it was 0.92. The “Diameter of inhibition zone” value in the experiment on Penicillium chrysogenum [4] is on record as 8 mm; in the experiment on Klebsiella pneumoniae [5] it was 12 mm; in experiment [6], 10 mm; with Aspergillus niger [7], 9 mm; in the experiment on Staphylococcus aureus [10], 10 mm; in the experiment with Aspergillus flavus [12] it was 11.3 mm.

Take `CCOC(=O)C1=NN(CC)C2(C(=O)c3ccccc3C2=O)P1(=O)OCC` (stereo unspecified): the Activity in [1] turned out to be 0.78; with Klebsiella pneumoniae [2], 0.8; with Aspergillus niger [3] it was 1.23; in the experiment with Aspergillus flavus [8], 1.35; in the experiment with Penicillium chrysogenum [9] it was 1.42; in the experiment on Staphylococcus aureus [11], 0.88. In addition, the “Diameter of inhibition zone” value turned out to be 7.8 mm with Penicillium chrysogenum [4]; 11.3 mm with Klebsiella pneumoniae [5]; 11 mm in [6]; 7.4 mm in the experiment on Aspergillus niger [7]; 8.5 mm with Staphylococcus aureus [10]; 9.6 mm with Aspergillus flavus [12].

Turning to `CCn1nc(SC)oc2c3ccccc3c(=O)c1=2`, the Activity is listed as 0.55 in [1]; 0.32 in the experiment with Klebsiella pneumoniae [2]; 1.31 in the experiment on Aspergillus niger [3]; 0.41 in the experiment with Aspergillus flavus [8]; 0.54 in the experiment with Penicillium chrysogenum [9]; 0.26 with Staphylococcus aureus [11]. Moreover, the “Diameter of inhibition zone” value with Penicillium chrysogenum [4] was 5.6 mm; in the experiment with Klebsiella pneumoniae [5], 5.1 mm; in experiment [6] it was 5.6 mm; in the experiment with Aspergillus niger [7] it was 4.9 mm; in the experiment with Staphylococcus aureus [10], 5.9 mm; with Aspergillus flavus [12], 6.2 mm.

As for `CCOP(=O)(OCC)C1=NN(CC)C2(C1=O)C(=O)c1ccccc1C2=O`, the Activity in experiment [1] is 0.57; in the experiment on Klebsiella pneumoniae [2] it was 0.63; in the experiment on Aspergillus niger [3], 0.73; in the experiment on Aspergillus flavus [8] it was 0.88; in the experiment on Penicillium chrysogenum [9] it was 1.06; in the experiment with Staphylococcus aureus [11] it was 0.83. The “Diameter of inhibition zone” value in the experiment on Penicillium chrysogenum [4] is reported as 5.9 mm; with Klebsiella pneumoniae [5] it was 8.2 mm; in [6], 7.6 mm; in the experiment with Aspergillus niger [7], 6.1 mm; in the experiment with Staphylococcus aureus [10], 7.6 mm; in the experiment on Aspergillus flavus [12] it was 7.4 mm.

For the molecule `CCOP(=O)(OCC)C1=NN(CC)C2(C1)C(=O)c1ccccc1C2=O`, the Activity is on record as 0.84 in experiment [1]; 1 in the experiment with Klebsiella pneumoniae [2]; 0.66 in the experiment with Aspergillus niger [3]; 0.62 in the experiment on Aspergillus flavus [8]; 0.71 with Penicillium chrysogenum [9]; 0.61 in the experiment on Staphylococcus aureus [11]. Besides, the “Diameter of inhibition zone” value in the experiment on Penicillium chrysogenum [4] is listed as 9 mm; with Klebsiella pneumoniae [5], 7.6 mm; in experiment [6], 9.8 mm; with Aspergillus niger [7] it was 4.3 mm; with Staphylococcus aureus [10] it was 8 mm; in the experiment with Aspergillus flavus [12] it was 5 mm.

Turning to `CCOP1(=O)C(SC)=NN(CC)C12C(=O)c1ccccc1C2=O` (stereo unspecified), the Activity in [1] turned out to be 0.92; in the experiment with Klebsiella pneumoniae [2] it was 0.81; with Aspergillus niger [3], 1.14; in the experiment on Aspergillus flavus [8], 1.36; in the experiment on Penicillium chrysogenum [9], 1.32; with Staphylococcus aureus [11], 1.16. Also, the “Diameter of inhibition zone” value with Penicillium chrysogenum [4] amounted to 9.2 mm; in the experiment with Klebsiella pneumoniae [5], 10.5 mm; in experiment [6] it was 12.6 mm; in the experiment with Aspergillus niger [7], 8 mm; in the experiment with Staphylococcus aureus [10], 12.8 mm; in the experiment with Aspergillus flavus [12], 9.8 mm.

In the case of `CCOP(=O)(OCC)C1=C(N)C2(N=N1)C(=O)c1ccccc1C2=O`, the Activity was found to be 0.75 in experiment [1]; 0.47 in the experiment with Klebsiella pneumoniae [2]; 0.73 in the experiment with Aspergillus niger [3]; 0.78 in the experiment on Aspergillus flavus [8]; 0.71 in the experiment on Penicillium chrysogenum [9]; 52 in the experiment on Staphylococcus aureus [11]. For the same molecule, the “Diameter of inhibition zone” value in the experiment with Penicillium chrysogenum [4] came to 5.2 mm; in the experiment with Klebsiella pneumoniae [5] it was 6 mm; in [6], 8.4 mm; in the experiment on Aspergillus niger [7], 5.4 mm; with Staphylococcus aureus [10] it was 7.2 mm; with Aspergillus flavus [12] it was 6.3 mm.
